This is an account of results in US6953832B2, “Dental materials based on polyfunctional amides” (Ivoclar Vivadent AG, priority 2001, dated 2005).

The data set is described as follows: Hydrolysis stability of monomer in water/ethanol/phosphoric acid (1H-NMR). Format: physicochemical. An excerpt: A major advantage of the amides according to the invention is to be seen in their hydrolysis stability. Aqueous solutions of the amides are thus also storage-stable in the presence of acidic compounds. As a linking of the monomer components via covalent C—C single bonds takes place on polymerization, this also applies to the corresponding polymers.

Consider Glycerine dimethacrylate, for which the Hydrolysis stability entry (20 wt.-% solution in 1:1:1 water, ethanol and 10% phosphoric acid, 37° C., 4 weeks, 1H-NMR) is reported as “−”. For the same substance, the “Hydrolysis stability in the presence of acid (in words)” value (aqueous solution, in the presence of phosphoric acid / acidic compounds) was “completely split to form glycerine and methacrylic acid”.
